{"source": "patent US4470980A", "about": "“Method of increasing oral absorption of β-lactam antibiotics” (priority 1981, dated 1984)", "data": [{"experiment": "not given", "conditions": "gastric acid; prior art; cited from earlier work", "values": [{"smiles": "CC1(C)S[C@@H]2[C@H](NC(=O)COc3ccccc3)C(=O)N2[C@H]1C(=O)O", "note": "[penicillin V]", "acid stability": "more acid stable"}]}, {"experiment": "not given", "conditions": "in vivo, po; cited from earlier work", "values": [{"smiles": "CO[C@@]1(NC(=O)C(C(=O)O)c2ccc(O)cc2)C(=O)N2C(C(=O)O)=C(CSc3nnnn3C)CO[C@@H]21", "note": "(stereo partly drawn) [Example S-6059]", "oral activity": "poor oral activity"}, {"smiles": "CC1(C)S[C@@H]2[C@H](NC(=O)C(C(=O)Oc3ccccc3)c3ccccc3)C(=O)N2[C@H]1C(=O)O", "note": "(stereo partly drawn) [carfecillin]", "absorbed": "40%", "blood levels": "low blood levels of carbenicillin"}, {"smiles": "CC1(C)S[C@@H]2[C@H](NC(=O)C(C(=O)Oc3ccc4c(c3)CCC4)c3ccccc3)C(=O)N2[C@H]1C(=O)O", "note": "(stereo partly drawn) [carindacillin]", "absorbed": "40%", "blood levels": "low blood levels of carbenicillin"}, {"smiles": "CC1=C(C(=O)O)N2C(=O)[C@@H](NC(=O)[C@H](N)c3ccc(O)cc3)[C@H]2SC1", "note": "[cefdioxil]", "absorbed": "greater than 80%"}, {"smiles": "CO[C@@]1(NC(=O)Cc2cccs2)C(=O)N2C(C(=O)O)=C(COC(N)=O)CS[C@@H]21", "note": "[cefoxitin, (6R-cis)-3-[[(amino-carbonyl)oxy]methyl]-7-methoxy-8-oxo7[(2-thienylacetyl)-amino]-5-thia-1-azabicyclo [4.2.0]oct-2-ene-2-carboxylic acid]", "oral activity": "poor oral activity"}, {"smiles": "CO/N=C(\\C(=O)N[C@@H]1C(=O)N2C(C(=O)O)=C(COC(N)=O)CS[C@H]12)c1ccco1", "note": "[cefuroxime]", "oral activity": "poor oral activity"}, {"smiles": "CC(=O)OCC1=C(C(=O)O)N2C(=O)[C@@H](NC(=O)Cc3cccs3)[C@H]2SC1", "note": "[cephalothin]", "oral activity": "poor oral activity"}, {"smiles": "CC1=C(C(=O)O)N2C(=O)[C@@H](NC(=O)[C@H](N)C3=CCC=CC3)[C@H]2SC1", "note": "[cephradine]", "absorbed": "greater than 80%"}]}, {"experiment": "not given", "conditions": "oral; prior art; cited from earlier work", "values": [{"smiles": "CO[C@@]1(NC(=O)CSCC#N)C(=O)N2C(C(=O)O)=C(CSc3nnnn3C)CS[C@@H]21", "note": "[Cefmetazole]", "oral activity": "poor oral activity"}, {"smiles": "CCN1CCN(C(=O)N[C@@H](C(=O)N[C@@H]2C(=O)N3C(C(=O)O)=C(CSc4nnnn4C)CS[C@H]23)c2ccc(O)cc2)C(=O)C1=O", "note": "[Example T-1551]", "oral activity": "poor oral activity"}, {"smiles": "CC1(C)S[C@@H]2[C@H](NC(=O)[C@H](N)c3ccc(O)cc3)C(=O)N2[C@H]1C(=O)O", "note": "[amoxicillin, 6-[[amino(4-hydroxyphenyl)-acetyl]amino]-3,3-dimethyl-7-oxo-4-thia-1-azabicyclo-[3.2.0]heptane-2-carboxylic acid]", "oral activity": "poor oral activity"}, {"smiles": "CC1(C)S[C@@H]2[C@H](NC(=O)[C@H](N)c3ccccc3)C(=O)N2[C@H]1C(=O)O", "note": "[ampicillin]", "oral activity": "poor oral activity"}, {"smiles": "N[C@@H](C(=O)N[C@@H]1C(=O)N2C(C(=O)O)=C(Cl)CS[C@H]12)c1ccccc1", "note": "[cefaclor]", "absorbed": "greater than 80%"}, {"smiles": "Cc1nnc(SCC2=C(C(=O)O)N3C(=O)[C@@H](NC(=O)[C@H](N)c4ccc(O)cc4)[C@H]3SC2)s1", "note": "[cefaporole]", "oral activity": "poor oral activity"}, {"smiles": "Cc1nnc(SCC2=C(C(=O)O)N3C(=O)[C@@H](NC(=O)Cn4cnnn4)[C@H]3SC2)s1", "note": "[cefaxolin]", "oral activity": "poor oral activity"}, {"smiles": "CC(=O)OCC1=C(C(=O)O)N2C(=O)[C@@H](NC(=O)CC#N)[C@H]2SC1", "note": "[cephacetrile]", "oral activity": "poor oral activity"}, {"smiles": "CC(=O)OCC1=C(C(=O)O)N2C(=O)[C@@H](NC(=O)[C@H](N)c3ccccc3)[C@H]2SC1", "note": "[cephaloglycin]", "absorbed": "greater than 80%"}, {"smiles": "O=C(Cc1cccs1)N[C@@H]1C(=O)N2C(C(=O)[O-])=C(C[n+]3ccccc3)CS[C@H]12", "note": "[cephaloridine]", "oral activity": "poor oral activity"}, {"smiles": "CC(=O)OCC1=C(C(=O)O)N2C(=O)[C@@H](NC(=O)CCC[C@@H](N)C(=O)O)[C@H]2SC1", "note": "[cephalosporin C]", "oral activity": "lack of oral activity"}, {"smiles": "CC(=O)OCC1=C(C(=O)O)N2C(=O)[C@@H](NC(=O)CSc3ccncc3)[C@H]2SC1", "note": "[cephapirin]", "oral activity": "poor oral activity"}, {"smiles": "CC1(C)S[C@@H]2[C@H](NC(=O)COc3ccccc3)C(=O)N2[C@H]1C(=O)O", "note": "[penicillin V]", "blood levels": "higher blood levels of the active therapeutic agent"}, {"smiles": "CC1(C)S[C@@H]2[C@H](NC(=O)[C@H](C(=O)O)c3ccsc3)C(=O)N2[C@H]1C(=O)O", "note": "[ticarcillin]", "oral activity": "cannot be administered by the oral route"}]}, {"experiment": "Blood level AUC after oral capsule of β-lactam antibiotic with adjuvant in dogs", "type": "in vivo, dog (Beagles)", "conditions": "300 mg/kg, dog, per os capsule, control, no absorption promotor, carbenicillin by bioassay, read-out: (AUC)° area below the blood level curve", "units": {"AUC": "ng·h/mL"}, "protocol": "Animal: Beagles (body weight 9.9-12.0 kg), 2 animals per test\nDrug: β-Lactam antibiotics\nAdjuvant: Hydroxylated aromatic carboxylic acids\nDose: β-Lactam antibiotic/adjuvant=300 mg/300 mg/kg\nForm of inoculum: Capsule\nRoute of administration: Per os\nBlood sampling: Vein (upper arm)\nObject of assay: Blood level\nQuantitation: Carbenicillin was determined by bioassay.", "values": [{"smiles": "CC1(C)S[C@@H]2[C@H](NC(=O)C(C(=O)O)c3ccccc3)C(=O)N2[C@H]1C(=O)O", "note": "(stereo partly drawn) [Carbenicillin]", "AUC": 5200}]}, {"experiment": "in vivo", "conditions": "mouse, urine, po, control without sodium salicylate, cefmetazole 50 mg/kg, gavage, mice, ± standard deviation, 8 mice, read-out: Percent of Dose In Urine", "units": {"dose excreted at 24 h": "%"}, "protocol": "The sodium salt of cefmetazole (50 mg/kg) and sodium salicylate (200 mg/kg) dissolved in water were given to mice by gavage. As a control, mice were given an equal dose of the sodium salt of cefmetazole in water without the added sodium salicylate. The mice were place in individual metabolism cages and their urines collected after 24 hours.\nThe urine samples were acidified to pH 2.0 with 1N phosphoric acid. Acidified samples were applied to 100-200 mesh XAD.2 columns (1.5 ml), and the column washed with H2 O. Cefmetazole was eluted with 2 ml methanol and measured by high pressure liquid chromatography which was carried out using an Altex liquid chromatograph equipped with a dual wavelength recorder (254 nm and 280 nm). The column was a LiChrosorb 10 RP-18 (length=25 cm., internal diameter--4.6 mm) obtained from Chrompack, Whittier, CA. All assays were done at ambient temperatures. A 3 cm guard column of RP-18 column material (Rheodyne, Inc., Berkeley, CA) was also used. […] Concentrations of cefmetazole were determined by measuring peak height at 254 nm and evaluating on the basis of standard curves run under identical conditions.", "values": [{"smiles": "CO[C@@]1(NC(=O)CSCC#N)C(=O)N2C(C(=O)O)=C(CSc3nnnn3C)CS[C@@H]21", "note": "[Cefmetazole]", "dose excreted at 24 h": "9.1 ± 7.5"}]}]}
